In data set [1] the test system is HCT-116 (colorectal cancer) cell line. As to the kind of experiment: SRB in-vitro cytotoxicity assay, HCT-116. The conditions noted are these: Homo sapiens. The method, then:
(§1) All the ring annulated analogues of cannabinoid were evaluated for their cytotoxicity against number of human cancer cell lines. To evaluate the in-vitro cytotoxicity, a sulphorhodamine B (SRB) assay was carried out. SRB is a negatively charged pink aminoxanthine dye that binds to the basic amino acid of cells in mildly acidic conditions and is removed in basic conditions. […] When cells reached 60-70% confluency, trypsinized and seeded in 96 well plates according to their inoculation density and incubated for 24 hours to attain their proper morphology. Next-day cells were again incubated for 48 hours with test compounds or paclitaxel (positive control). Next, cells were fixed with 50% of ice-cold TCA for 1 hours, washed with distilled water, and kept for air drying. Air-dried plates were then stained with 0.4% SRB dye for 30 minutes and subsequently with water and 1% v/v glacial acetic acid were then kept for air drying. […] The viability of cells is measured based on bound dye after fixation, which is measured by absorbance at 540 nm.

Data set [2] concerns MCF-7 (breast cancer) cell line. Put plainly: SRB in-vitro cytotoxicity assay, MCF-7. The settings on record: Homo sapiens. The procedure: as §1
Data set [3] deals with A549 (lung cancer) cell line. Put plainly: SRB in-vitro cytotoxicity assay, A549. The settings on record: Homo sapiens. The method, then: as §1
The subject of data set [4] is PC-3 (prostate cancer) cell line. As to the kind of experiment: SRB in-vitro cytotoxicity assay, PC-3. The settings on record: Homo sapiens. The method, then:
as §1

The subject of data set [5] is U251 (glioblastoma) cell line. Put plainly: SRB in-vitro cytotoxicity assay, U251. The conditions noted are these: Homo sapiens. The procedure: as §1
In data set [6] the test system is Mia-PaCa (pancreatic cancer) cell line. As to the kind of experiment: SRB in-vitro cytotoxicity assay, Mia-PaCa. The settings on record: Homo sapiens. The method, then: as §1
A short description of data set [7]: in vitro. The settings on record: human. The procedure: as §1
Setting [8] is: HCT-116, 48 h, read-out: Cytotoxicity (in vitro cell inhibition) HCT-116.
[9] abbreviates: HCT-116, read-out: inhibition against HCT-116 cell lines.
Where [10] appears, read: MCF7, 48 h, read-out: Cytotoxicity (in vitro cell inhibition) MCF-7.
[11] abbreviates: MCF7, read-out: inhibition against MCF-7 cell lines.
The mark [12] stands for this setting: A549, 48 h, read-out: Cytotoxicity (in vitro cell inhibition) A549.
[13] abbreviates: A549, read-out: inhibition against A549 cell lines.
Where [14] appears, read: 48 h, read-out: Cytotoxicity (in vitro cell inhibition) PC3.
The mark [15] stands for this setting: PC-3, read-out: inhibition against PC3 cell lines.
[16] abbreviates: U-251, 48 h, read-out: Cytotoxicity (in vitro cell inhibition) U251.
[17] abbreviates: MIA PaCa-2, 48 h, read-out: Cytotoxicity (in vitro cell inhibition) Mia-PaCa.
Where [18] appears, read: MIA PaCa-2, read-out: inhibition against Mia-PaCa cell lines.
Setting [19] is: U-251, read-out: inhibition against U251 cell lines.

Like-named read-outs stand apart in the source and are kept apart here.

A word on the inhibition: it is how much of the control response was suppressed. As for `C=C(C)[C@@H]1CCC(C)=C[C@H]1c1c(O)cc(CCCCC)cc1O` [IIa, cannabidiol], the inhibition at 20 µM in data set [1] (setting [8]) was above 70%; in data set [1] (setting [9]) it was above 70%; in data set [2] (setting [10]), 50 to 70%; in data set [2] (setting [11]) it was above 50%; in data set [3] (setting [12]) it was above 70%; in data set [3] (setting [13]), above 70%. Further, the inhibition at 20 µM is 50 to 70% in data set [4] (setting [14]), above 50% in data set [4] (setting [15]) and below 50% in data set [5] (setting [16]).
Turning to `C=C(C)[C@@H]1CCC(C)=C[C@H]1c1c(O)cc(CCCCC)c2c1OCN(CCC)C2` [Ic, (N-propyldihydrol-2H-oxazinyl)-cannabidiol], the inhibition at 20 µM was 50 to 70% in data set [1] (setting [8]); above 50% in data set [1] (setting [9]); above 70% in data set [2] (setting [10]); above 70% in data set [2] (setting [11]); 50 to 70% in data set [3] (setting [12]); above 50% in data set [3] (setting [13]). Moreover, the inhibition at 20 µM was above 70% in data set [6] (setting [17]); above 70% in data set [6] (setting [18]); 50 to 70% in data set [4] (setting [14]); above 50% in data set [4] (setting [15]); 50 to 70% in data set [5] (setting [16]); above 50% in data set [5] (setting [19]). The molecule also had an inhibition at 20 µM in data set [7] below 50%.
By IC50 is commonly meant the point on the concentration scale where inhibition reaches its midpoint. `C=C(C)[C@@H]1CCC(C)=C[C@H]1c1c(O)cc(CCCCC)c2c1OCN(CCCC)C2` [Id, (N-butyldihydrol-2H-oxazinyl)-cannabidiol]: the inhibition at 20 µM in data set [1] (setting [8]), in data set [1] (setting [9]), in data set [2] (setting [10]), in data set [2] (setting [11]), in data set [3] (setting [12]) and in data set [3] (setting [13]) was above 70% throughout. Besides, the inhibition at 20 µM in data set [6] (setting [17]) was above 70%; in data set [6] (setting [18]), above 70%; in data set [4] (setting [14]), above 70%; in data set [4] (setting [15]), above 70%; in data set [5] (setting [16]), 50 to 70%; in data set [5] (setting [19]), above 50%. In data set [7], the inhibition at 20 µM was below 50%. For the same molecule, the IC50 amounted to 4.1 µM in data set [1] (HCT-116, read-out: IC50 against HCT-116); 2890 nM in data set [2] (MCF7, read-out: IC50 against MCF-7); 9.36 µM in data set [3] (A549, read-out: IC50 against A549); 11.5 µM in data set [6] (MIA PaCa-2, read-out: IC50 against Mia-PaCa-2); 4.2 µM in data set [4] (read-out: IC50 against PC-3); 17.4 µM in data set [5] (U-251, read-out: IC50 against U251).
For the molecule `C=C(C)[C@@H]1CCC(C)=C[C@H]1c1c(O)cc(CCCCC)c2c1OCN(CCCCCC)C2` [Ie, (N-hexyldihydrol-2H-oxazinyl)-cannabidiol], the inhibition at 20 µM in data set [1] (setting [8]) is above 70%; in data set [1] (setting [9]), above 70%; in data set [2] (setting [10]) it was above 70%; in data set [2] (setting [11]), above 70%; in data set [3] (setting [12]), below 50%; in data set [6] (setting [17]), below 50%. Besides, the inhibition at 20 µM in data set [4] (setting [14]) and in data set [5] (setting [16]) was below 50% in each case. For the same molecule, the inhibition at 48 h, 20 µM in data set [7] is below 50%.
Take `C=C(C)[C@@H]1CCC(C)=C[C@H]1c1c(O)cc(CCCCC)c2c1OCN(C1CC1)C2` [Ig, (N-cyclopropyldihydrol-2H-oxazinyl)-cannabidiol]: the inhibition at 20 µM in data set [1] (setting [8]) is 50 to 70%; in data set [1] (setting [9]), above 50%; in data set [2] (setting [10]) it was 50 to 70%; in data set [2] (setting [11]) it was above 50%; in data set [3] (setting [12]) it was 50 to 70%; in data set [3] (setting [13]), above 50%. The inhibition at 20 µM in data set [6] (setting [17]) was below 50%; in data set [4] (setting [14]), 50 to 70%; in data set [4] (setting [15]), above 50%; in data set [5] (setting [16]), below 50%; in data set [7] it was below 50%.
As for `C=C(C)[C@@H]1CCC(C)=C[C@H]1c1c(O)cc(CCCCC)c2c1OCN(C1CCCCCC1)C2` [Ii, (N-cycloheptyldihydrol-2H-oxazinyl)-cannabidiol], the inhibition at 20 µM in data set [1] (setting [8]) was 50 to 70%; in data set [1] (setting [9]) it was above 50%; in data set [2] (setting [10]) it was above 70%; in data set [2] (setting [11]), above 70%; in data set [3] (setting [12]) it was above 70%; in data set [3] (setting [13]), above 70%. Besides, the inhibition at 20 µM was above 70% in data set [6] (setting [17]); above 70% in data set [6] (setting [18]); 50 to 70% in data set [4] (setting [14]); above 50% in data set [4] (setting [15]); below 50% in data set [5] (setting [16]). The molecule further returned an inhibition at 48 h, 20 µM in data set [7] below 50%.
For `C=C(C)[C@@H]1CCC(C)=C[C@H]1c1c(O)cc(CCCCC)c2c1OCN(c1ccccc1)C2` [Ij, (N-phenyldihydrol-2H-oxazinyl)-cannabidiol], the inhibition at 20 µM in data set [1] (setting [8]), in data set [2] (setting [10]), in data set [3] (setting [12]), in data set [6] (setting [17]), in data set [4] (setting [14]) and in data set [5] (setting [16]) was below 50% in each case. In data set [7], the inhibition at 48 h, 20 µM was below 50%.
For `C=C(C)[C@@H]1CCC(C)=C[C@H]1c1c(O)cc(CCCCC)c2c1OCN(c1ccc(C(C)C)cc1)C2` [Ik, (N-isopropylphenyldihydrol-2H-oxazinyl)-cannabidiol], the inhibition at 20 µM in data set [1] (setting [8]), in data set [2] (setting [10]), in data set [3] (setting [12]), in data set [6] (setting [17]), in data set [4] (setting [14]) and in data set [5] (setting [16]) was below 50% throughout. The molecule also gave an inhibition at 48 h, 20 µM in data set [7] below 50%.
`C=C(C)[C@@H]1CCC(C)=C[C@H]1c1c(O)cc(CCCCC)c2c1OCN(c1ccc(OC(F)(F)F)cc1)C2` [Il, (N-trifluoromethoxyphenyldihydrol-2H-oxazinyl)-cannabidiol]: the inhibition at 20 µM in data set [1] (setting [8]), in data set [2] (setting [10]), in data set [3] (setting [12]), in data set [6] (setting [17]), in data set [4] (setting [14]) and in data set [5] (setting [16]) was below 50% in each case. In addition, in data set [7], the inhibition at 48 h, 20 µM was below 50%.
As for `C=C(C)[C@@H]1CCC(C)=C[C@H]1c1c(O)cc(CCCCC)c2c1OCN(c1cnc3ccccc3c1)C2` [Im, (N-quinolinedihydrol-2H-oxazinyl)-cannabidiol], the inhibition at 20 µM in data set [1] (setting [8]), in data set [2] (setting [10]), in data set [3] (setting [12]), in data set [6] (setting [17]), in data set [4] (setting [14]) and in data set [5] (setting [16]) was below 50% each time. The molecule further displayed an inhibition at 48 h, 20 µM in data set [7] below 50%.
With `C=C(C)[C@@H]1CCC(C)=C[C@H]1c1c(O)cc(CCCCC)c2c1OCN(Cc1ccccc1)C2` [In, (N-benzyldihydrol-2H-oxazinyl)-cannabidiol], the inhibition at 20 µM in data set [1] (setting [9]) is above 50%; in data set [2] (setting [10]), below 50%; in data set [3] (setting [13]), above 50%; in data set [6] (setting [17]) it was below 50%; in data set [4] (setting [15]), above 50%; in data set [5] (setting [16]), below 50%. For the same molecule, in data set [7], the inhibition at 48 h, 20 µM is below 50%.
`C=C(C)[C@@H]1CCC(C)=C[C@H]1c1c(O)cc(CCCCC)c2c1OCN(c1ccccc1F)C2` [Io, (N-2-fluorophenyldihydrol-2H-oxazinyl)-cannabidiol]: the inhibition at 20 µM in data set [1] (setting [8]), in data set [2] (setting [10]), in data set [3] (setting [12]), in data set [6] (setting [17]), in data set [4] (setting [14]) and in data set [5] (setting [16]) was below 50% in each case. Further, in data set [7], the inhibition at 48 h, 20 µM was below 50%.

The values above are taken from patent US20260216216A1, “(N-ALKYLDIHYDROL-2H-OXAZINYL)-CANNABIDIOL AS ANTI-PROLIFERATIVE AGENT AND PROCESS FOR PREPARATION THEREOF” (COUNCIL OF SCIENTIFIC AND INDUSTRIAL RESEARCH, priority 2022, published 2026).
